Data: PubChem BioAssay (NCI)
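The concentration for 50% growth inhibition is given as GI50. Definition used: TGI = concentration required for complete inhibition of growth.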

Columns and labels:
Assay in all cases: NCI-60 cell line screen, 384-well format
[1] = system: NCI-H226 lung
[2] = system: NCI-H23 lung
[3] = system: NCI-H322M lung
[4] = system: NCI-H460 NSCLC
[5] = system: NCI-H522 lung
[6] = system: NCI/ADR-RES ovarian
[7] = system: OVCAR-3 ovarian
[8] = system: OVCAR-4 ovarian
[9] = system: OVCAR-8 ovarian
[10] = system: RPMI-8226 leukemia
[11] = system: RXF 393 renal
[12] = system: SF-268 CNS
[13] = system: SF-295 CNS
[14] = system: SF-539 CNS
[15] = system: SK-MEL-28 melanoma
[16] = system: SK-MEL-5 melanoma
[17] = system: SK-OV-3 ovarian
[18] = system: SN12C renal
[19] = system: SNB-19 CNS
[20] = system: SNB-75 CNS
[21] = system: SR leukemia
[22] = system: SW-620 colon
[23] = system: T-47D breast
[24] = system: TK-10 renal
[25] = system: U251 glioblastoma
[26] = system: UACC-257 melanoma
[27] = system: UACC-62 melanoma
[28] = system: UO-31 renal

## CCc1cc(C(N)=O)ccc1-n1nc(C(C)C)c2c(-n3cnc(-c4cnn(C)c4)c3)ccnc21
[1]
  GI50: 3040 nM
  TGI: > 100000 nM
[2]
  GI50: 301 nM
  TGI: 873 nM
[3]
  GI50: 799 nM
  TGI: > 100000 nM
[4]
  GI50: 285 nM
  TGI: 645 nM
[5]
  GI50: 210 nM
  TGI: 458 nM
[6]
  GI50: 16900 nM
  TGI: 75400 nM
[7]
  GI50: 454 nM
  TGI: 2230 nM
[8]
  GI50: 6010 nM
  TGI: > 100000 nM
[9]
  GI50: 396 nM
  TGI: 1620 nM
[10]
  GI50: 376 nM
  TGI: 1090 nM
[11]
  GI50: 236 nM
  TGI: 614 nM
[12]
  GI50: 510 nM
  TGI: > 100000 nM
[13]
  GI50: 426 nM
  TGI: 1660 nM
[14]
  GI50: 304 nM
  TGI: 768 nM
[15]
  GI50: 387 nM
  TGI: 20000 nM
[16]
  GI50: 532 nM
  TGI: 39100 nM
[17]
  GI50: 738 nM
  TGI: > 100000 nM
[18]
  GI50: 412 nM
  TGI: 2440 nM
[19]
  GI50: 778 nM
  TGI: > 100000 nM
[20]
  GI50: 402 nM
  TGI: 2020 nM
[21]
  GI50: 169 nM
  TGI: 329 nM
[22]
  GI50: 407 nM
  TGI: 15500 nM
[23]
  GI50: 1590 nM
  TGI: 10100 nM
[24]
  GI50: 487 nM
  TGI: > 100000 nM
[25]
  GI50: 485 nM
  TGI: 3080 nM
[26]
  GI50: 5930 nM
  TGI: > 100000 nM
[27]
  GI50: 702 nM
  TGI: 3240 nM
[28]
  GI50: 1130 nM
  TGI: > 100000 nM
